In patent US8178506B2, “Oligomeric compounds and compositions for use in modulation of small non-coding RNAs” (Regulus Therapeutics Inc., priority 2003, dated 2012):
e = 2'-O-(2-methoxyethyl) (MOE); d = 2'-deoxy (DNA)

System: IL-6 mRNA
Assay: IL-6 mRNA in LPS-activated primary murine macrophages
Assay type: cell-based, mouse
Conditions: average of 3 treatments
How it was run: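 Thioglycollate-elicited peritoneal macrophages from female C57Bl/6 mice, transfected with miRNA-targeting oligomeric compounds via FuGENE 6 (1 μL per 100 nM compound) for ~24–28 h at 37 °C, optionally primed 4 h with 100 ng/mL IFN-gamma, then stimulated 24 h with 100 ng/mL LPS. IL-6 mRNA quantified by real-time PCR.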

## 129690 (antisense TTAGAATACGTCGCGTTATG; sugars from the 5' end e5 d10 e5, all phosphorothioate, methylation of C not given here) [compound 129690]
75 nM, +IFN
  IL-6 mRNA expression, % UTC: 92 % UTC
75 nM, −IFN
  IL-6 mRNA expression, % UTC: 98 % UTC
150 nM, +IFN
  IL-6 mRNA expression, % UTC: 86 % UTC
150 nM, −IFN
  IL-6 mRNA expression, % UTC: 99 % UTC
300 nM, +IFN
  IL-6 mRNA expression, % UTC: 94 % UTC
300 nM, −IFN
  IL-6 mRNA expression, % UTC: 109 % UTC
600 nM, +IFN
  IL-6 mRNA expression, % UTC: 203 % UTC
600 nM, −IFN
  IL-6 mRNA expression, % UTC: 258 % UTC
